The results in this text go back to patent US8846933B2, “N-link hydroxamic acid derivatives useful as antibacterial agents” (Pfizer Inc., priority 2009, dated 2014).

Type in all cases: cell-based
The test system of test [1] is Acinetobacter baumanii/haemolyticus: Multidrug-resistant clinical isolate (AB-3167). The test can be described thus: MIC determination (CLSI), strain AB-3167. The following applies: unit assumed. The method, boiled down: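 Using the multidrug-resistant Acinetobacter baumanii/haemolyticus clinical isolate AB-3167, minimum inhibitory concentrations were determined following CLSI dilution susceptibility standards.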

Test [2] relates to Escherichia coli EC-1: VOGEL, mouse virulent. The test can be described thus: MIC determination (CLSI), strain EC-1. The following applies: Escherichia coli EC-1, VOGEL, mouse virulent; unit assumed. The method, boiled down: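 The mouse-virulent VOGEL isolate of E. coli, EC-1, served as test organism. Minimum inhibitory concentration was measured by CLSI dilution methodology (M7-A7; M100-S18 standards).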

Test [3] relates to Pseudomonas aeruginosa UI-18: Wild-type (PA-7). The test can be described thus: MIC determination (CLSI), strain PA-7. The following applies: Pseudomonas aeruginosa UI-18, wild-type; unit assumed. The method, boiled down:
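Strain tested was P. aeruginosa UI-18, a wild-type isolate labelled PA-7. Minimum inhibitory concentrations followed CLSI dilution methodology for aerobically growing bacteria (M7-A7, M100-S18).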

The molecule `C[C@@](CCn1ccc(-c2ccc(-c3nccs3)cc2)cc1=O)(C(=O)NO)S(C)(=O)=O` [Example 68-D, (2R)-N-hydroxy-2-methyl-2-(methylsulfonyl)-4-{2-oxo-4-[4-(1,3-thiazol-2-yl)phenyl]pyridin-1(2H)-yl}butanamide] returned an AB-3167 (MIC) in test [1] of over 64 µg/mL. Also, the EC-1 (MIC) in test [2] came out at 0.06 µg/mL. Besides, the PA-7 (MIC) in test [3] was 0.5 µg/mL.

In the case of `C[C@@](CCn1ccc(-c2ccc([C@H]3C[C@@](C)(O)C3)cc2)cc1=O)(C(=O)NO)S(C)(=O)=O` [Example 68-H, (2R)-N-hydroxy-4-{4-[4-(cis-3-hydroxy-3-methylcyclobutyl)phenyl]-2-oxopyridin-1(2H)-yl}-2-methyl-2-(methylsulfonyl)butanamide], in test [1], the AB-3167 (MIC) was over 64 µg/mL. The molecule further displayed an EC-1 (MIC) in test [2] of 2 µg/mL. Moreover, the PA-7 (MIC) in test [3] stood at 1 µg/mL.

In the case of `CCC(=O)c1ccc(-c2ccn(CC[C@](C)(C(=O)NO)S(C)(=O)=O)c(=O)c2)cc1` [Example 68-G, (2R)-N-hydroxy-2-methyl-2-(methylsulfonyl)-4-[2-oxo-4-(4-propionylphenyl)pyridin-1(2H)-yl]butanamide], the AB-3167 (MIC) in test [1] is over 64 µg/mL. Further, the EC-1 (MIC) in test [2] was found to be 0.5 µg/mL. Besides, in test [3], the PA-7 (MIC) is 1 µg/mL.

With `COc1cnn(-c2ccc(-c3ccn(CC[C@](C)(C(=O)NO)S(C)(=O)=O)c(=O)c3)cc2)n1` [Example 58, (2R)-N-hydroxy-4-{4-[4-(4-methoxy-2H-1,2,3-triazol-2-yl)phenyl]-2-oxopyridin-1(2H)-yl}-2-methyl-2-(methylsulfonyl)butanamide], the AB-3167 (MIC) in test [1] is over 64 µg/mL. This molecule also registered an EC-1 (MIC) in test [2] of 0.03 µg/mL. In test [3], the PA-7 (MIC) was found to be 0.5 µg/mL.

The molecule `C[C@H](O)c1ccc2cc(-c3ccn(CC[C@](C)(C(=O)NO)S(C)(=O)=O)c(=O)c3)ccc2c1` [Example 68-N, (2R)-N-hydroxy-4-[4-{6-[(1S)-1-hydroxyethyl]-2-naphthyl}-2-oxopyridin-1(2H)-yl]-2-methyl-2-(methylsulfonyl)butanamide] returned an AB-3167 (MIC) in test [1] of over 64 µg/mL. In test [2], this molecule returned an EC-1 (MIC) of 0.5 µg/mL. In test [3], this molecule displayed a PA-7 (MIC) of 2 µg/mL.

`Cc1ccc(-c2ccn(CC[C@](C)(C(=O)NO)S(C)(=O)=O)c(=O)c2)c(F)c1` [Example 13, (2R)-4-[4-(2-fluoro-4-methylphenyl)-2-oxopyridin-1(2H)-yl]-N-hydroxy-2-methyl-2-(methylsulfonyl)butanamide] displayed an AB-3167 (MIC) in test [1] of over 64 µg/mL. In addition, the EC-1 (MIC) in test [2] was 0.5 µg/mL. Further, the PA-7 (MIC) in test [3] turned out to be 0.5 µg/mL.

Regarding `C[C@@](CCn1ccc(-c2ccc(-c3ncccn3)cc2)cc1=O)(C(=O)NO)S(C)(=O)=O` [Example 39, (2R)-N-hydroxy-2-methyl-2-(methylsulfonyl)-4-[2-oxo-4-(4-pyrimidin-2-ylphenyl)pyridin-1(2H)-yl]butanamide], the AB-3167 (MIC) in test [1] is over 64 µg/mL. This molecule also registered an EC-1 (MIC) in test [2] of 0.5 µg/mL. Besides, the PA-7 (MIC) in test [3] was found to be 2 µg/mL.

The molecule `C[C@@](CCn1ccc(-c2ccc(Cl)c(F)c2F)cc1=O)(C(=O)NO)S(C)(=O)=O` [Example 49, (2R)-4-[4-(4-chloro-2,3-difluorophenyl)-2-oxopyridin-1(2H)-yl]-N-hydroxy-2-methyl-2-(methylsulfonyl)butanamide] displayed an AB-3167 (MIC) in test [1] of over 64 µg/mL. In addition, the EC-1 (MIC) in test [2] came out at 0.125 µg/mL. In test [3], this molecule showed a PA-7 (MIC) of 0.25 µg/mL.

For the molecule `C[C@@](CCn1ccc(-c2ccc(OC3CCC(O)CC3)cc2)cc1=O)(C(=O)NO)S(C)(=O)=O` (stereo partly drawn) [Example 7, (2R)-N-hydroxy-4-[4-{4-[(4-hydroxycyclohexyl)oxy]phenyl}-2-oxopyridin-1(2H)-yl]-2-methyl-2-(methylsulfonyl)butanamide], the AB-3167 (MIC) in test [1] was determined as 64 µg/mL. Further, the EC-1 (MIC) in test [2] amounted to 1 µg/mL. The molecule also yielded a PA-7 (MIC) in test [3] of 2 µg/mL.

For the molecule `C[C@@](CCn1ccc(-c2ccc(OC(F)F)cc2F)cc1=O)(C(=O)NO)S(C)(=O)=O` [Example 28, (2R)-4-{4-[4-(difluoromethoxy)-2-fluorophenyl]-2-oxopyridin-1(2H)-yl}-N-hydroxy-2-methyl-2-(methylsulfonyl)butanamide], the AB-3167 (MIC) in test [1] is over 64 µg/mL. In addition, the EC-1 (MIC) in test [2] stood at 0.25 µg/mL. Besides, the PA-7 (MIC) in test [3] amounted to 0.5 µg/mL.

As for `CCC(CCn1ccc(-c2ccccc2)cc1=O)(C(=O)NO)S(C)(=O)=O` (stereo not drawn) [Example 54, 2-Ethyl-N-hydroxy-2-(methylsulfonyl)-4-(2-oxo-4-phenylpyridin-1(2H)-yl)butanamide], the AB-3167 (MIC) in test [1] amounted to 64 µg/mL. Moreover, the EC-1 (MIC) in test [2] amounted to 16 µg/mL. Also, in test [3], the PA-7 (MIC) came to 16 µg/mL.

`CC(CCn1ccc(-c2cc3ccccc3o2)cc1=O)(C(=O)NO)S(C)(=O)=O` (racemic) [Example 33, (+/−)-4-[4-(1-benzofuran-2-yl)-2-oxopyridin-1(2H)-yl]-N-hydroxy-2-methyl-2-(methylsulfonyl)butanamide] returned an AB-3167 (MIC) in test [1] of over 64 µg/mL. The EC-1 (MIC) in test [2] stood at 1 µg/mL. This molecule showed a PA-7 (MIC) in test [3] of 2 µg/mL.

On to `Cc1cccc(-c2ccn(CC[C@](C)(C(=O)NO)S(C)(=O)=O)c(=O)c2)c1Cl` [Example 68-E, (2R)-4-[4-(2-chloro-3-methylphenyl)-2-oxopyridin-1(2H)-yl]-N-hydroxy-2-methyl-2-(methylsulfonyl)butanamide], for which the AB-3167 (MIC) in test [1] is 64 µg/mL. In test [2], this molecule yielded an EC-1 (MIC) of 0.25 µg/mL. Moreover, the PA-7 (MIC) in test [3] came to 0.5 µg/mL.

Molecule `C[C@@](CCn1ccc(-c2ccc(OC[C@H]3CC[C@@H](O)CC3)cc2F)cc1=O)(C(=O)NO)S(C)(=O)=O` [Example 10-L, (2R)-4-[4-{2-fluoro-4-[(cis-4-hydroxycyclohexyl)methoxy]phenyl}-2-oxopyridin-1(2H)-yl]-N-hydroxy-2-methyl-2-(methylsulfonyl)butanamide] displayed an AB-3167 (MIC) in test [1] of over 64 µg/mL. For the same molecule, in test [2], the EC-1 (MIC) came out at 0.25 µg/mL. Moreover, the PA-7 (MIC) in test [3] was determined as 1 µg/mL.

`COc1ccc2cc(-c3ccn(CCC(C)(C(=O)NO)S(C)(=O)=O)c(=O)c3)ccc2c1` (racemic) [Example 34, (+/−)-N-hydroxy-4-[4-(6-methoxy-2-naphthyl)-2-oxopyridin-1(2H)-yl]-2-methyl-2-(methylsulfonyl)butanamide] displayed an AB-3167 (MIC) in test [1] of 8 µg/mL. In addition, in test [2], the EC-1 (MIC) was under 0.06 µg/mL. This molecule also displayed a PA-7 (MIC) in test [3] of 1 µg/mL.

Turning to `C[C@@](CCn1ccc(-c2cccc(Cl)c2F)cc1=O)(C(=O)NO)S(C)(=O)=O` [Example 45, (2R)-4-[4-(3-chloro-2-fluorophenyl)-2-oxopyridin-1(2H)-yl]-N-hydroxy-2-methyl-2-(methylsulfonyl)butanamide], the AB-3167 (MIC) in test [1] was over 64 µg/mL. Further, the EC-1 (MIC) in test [2] came out at 0.25 µg/mL. Also, the PA-7 (MIC) in test [3] was determined as 0.5 µg/mL.

With `C[C@@](CCn1ccc(C2=CCCCCC2)cc1=O)(C(=O)NO)S(C)(=O)=O` [Example 68-L, (2R)-4-(4-cyclohept-1-en-1-yl-2-oxopyridin-1(2H)-yl)-N-hydroxy-2-methyl-2-(methylsulfonyl)butanamide], in test [1], the AB-3167 (MIC) was over 64 µg/mL. The EC-1 (MIC) in test [2] was 2 µg/mL. The same molecule displayed a PA-7 (MIC) in test [3] of 1 µg/mL.

Take `CO/N=C(\C)c1ccc(-c2ccn(CCC(C)(C(=O)NO)S(C)(=O)=O)c(=O)c2)cc1` (stereo not drawn) [Example 62, N-Hydroxy-4-[4-{4-[(1E)-N-methoxyethanimidoyl]phenyl}-2-oxopyridin-1(2H)-yl]-2-methyl-2-(methylsulfonyl)butanamide]: the AB-3167 (MIC) in test [1] is over 64 µg/mL. This molecule had an EC-1 (MIC) in test [2] of 0.5 µg/mL. This molecule also displayed a PA-7 (MIC) in test [3] of 4 µg/mL.

`C[C@@](CCn1ccc(-c2ccc(-c3ccccc3)s2)cc1=O)(C(=O)NO)S(C)(=O)=O` [Example 68-P, (2R)-N-hydroxy-2-methyl-2-(methylsulfonyl)-4-[2-oxo-4-(5-phenyl-2-thienyl)pyridin-1(2H)-yl]butanamide]: the AB-3167 (MIC) in test [1] is over 64 µg/mL. This molecule registered an EC-1 (MIC) in test [2] of 0.06 µg/mL. The molecule further displayed a PA-7 (MIC) in test [3] of 8 µg/mL.

For the molecule `CC(CCn1ccc(-c2ccc(OCCc3ccncc3)cc2)cc1=O)(C(=O)NO)S(C)(=O)=O` (stereo not drawn) [Example 37, N-hydroxy-2-methyl-2-(methylsulfonyl)-4-{2-oxo-4-[4-(2-pyridin-4-ylethoxy)phenyl]pyridin-1(2H)-yl}butanamide], the AB-3167 (MIC) in test [1] is over 64 µg/mL. This molecule also displayed an EC-1 (MIC) in test [2] of 0.5 µg/mL. In addition, the PA-7 (MIC) in test [3] amounted to 4 µg/mL.

Turning to `CC(C)(O)C(O)CCOc1ccc(-c2ccn(CC[C@](C)(C(=O)NO)S(C)(=O)=O)c(=O)c2)cc1` (stereo partly drawn) [Example 10-K, (2R)-4-[4-{4-[(3,4-dihydroxy-4-methylpentyl)oxy]phenyl}-2-oxopyridin-1(2H)-yl]-N-hydroxy-2-methyl-2-(methylsulfonyl)butanamide], the AB-3167 (MIC) in test [1] is over 64 µg/mL. Also, in test [2], the EC-1 (MIC) was 8 µg/mL. The molecule further gave a PA-7 (MIC) in test [3] of 8 µg/mL.

Consider `C[C@@](CCn1ccc(-c2ccc(OCCCC#N)cc2)cc1=O)(C(=O)NO)S(C)(=O)=O` [Example 10-C, (2R)-4-{4-[4-(3-cyanopropoxy)phenyl]-2-oxopyridin-1(2H)-yl}-N-hydroxy-2-methyl-2-(methylsulfonyl)butanamide], for which, in test [1], the AB-3167 (MIC) was over 64 µg/mL. Besides, the EC-1 (MIC) in test [2] was determined as 0.5 µg/mL. In test [3], this molecule gave a PA-7 (MIC) of 1 µg/mL.

`CC1(O)CCC(Oc2ccc(-c3ccn(CC[C@](C)(C(=O)NO)S(C)(=O)=O)c(=O)c3)cc2F)CC1` (stereo partly drawn) [Example 10-I, (2R)-4-[4-{3-fluoro-4-[(4-hydroxy-4-methylcyclohexyl)oxy]phenyl}-2-oxopyridin-1(2H)-yl]-N-hydroxy-2-methyl-2-(methylsulfonyl)butanamide] returned an AB-3167 (MIC) in test [1] of over 64 µg/mL. This molecule also came in with an EC-1 (MIC) in test [2] of 0.5 µg/mL. Moreover, in test [3], the PA-7 (MIC) was found to be 2 µg/mL.
